In patent US11744868B1, “Inonotus obliquus dextran, preparation method and application thereof” (Jilin Agricultural University, priority 2022, dated 2023):
Counter-ions that a name gives are not always drawn.

Experiments:
[1] = system: AsPC-1 (human metastatic pancreatic adenocarcinoma cells) cells; experiment: CCK-8 cell viability of AsPC-1 cells; assay type: cell-based; conditions: for Cell vitality (%): 24 h, n = 3
Method: Therapeutic effects of two drugs, Inonotus Obliquus polysaccharide and gemcitabine hydrochloride, alone and in combination, on AsPC-1 (human metastatic pancreatic adenocarcinoma cells) cells are investigated respectively. Cell culture: AsPC-1 (human metastatic pancreatic adenocarcinoma cells) cells are resuscitated in culture flasks and incubated at 37° C. in a 5% CO2 incubator; the cells are adhered to the wall and then subjected to passaging or […] operations; inoculation: when the cells are in logarithmic growth phase, they are washed twice with PBS buffer (phosphate concentration 0.01 M, pH 7.2-7.4); the cells are digested by 1 mL of 0.25% trypsin-EDTA (ethylene diamine tetraacetic acid) for 1-2 min, then 2 mL of RPMI-1640 culture solution containing 10% fetal bovine serum and 1% of double antibodies (penicillin and streptomycin) is added to terminate the digestion, followed by centrifuging at 1,000 revolutions per minute (rpm) for 3 min; then the wall-adhered cells are completely blown down and enumerated by hemocytometer plates, where the cells are inoculated in an 96-well plate in an amount of 100 μL per well, with a controlled number of 5,000 cells per well, and incubated in an incubator for 24 h. CCK-8 experiment dosing: […] Calculation of cell viability for each group:Cell viability (%)=(ODsample−ODblank)×100/(ODcontrol−ODblank)

AsPC-1 cell = conditions: 0, 200 μg/mL, 400 μg/mL, 800 ng/mL; 24 h incubation; FIG. 9
Method: 1.2 experimental cell line AsPC-1 of human metastatic pancreatic cancer is purchased from American Type Culture Collection (ATCC);
2.1 human metastatic pancreatic cancer cells are cultured in RPMI-1640 culture medium (containing penicillin 100 U/mL, streptomycin 100 U/mL and 10% fetal bovine serum) at 37° C. in a 5% CO2 constant temperature incubator, and cells of logarithmic growth phase are taken for the experiment;

Compound	Cell vitality (%) ([1]; 0 μg/mL IOP1-1 + 20 μg/mL gemcitabine hydrochloride)	Cell vitality (%) ([1]; 400 μg/mL IOP1-1 + 0 μg/mL gemcitabine hydrochloride)	Cell vitality (%) ([1]; 800 μg/mL IOP1-1 + 0 μg/mL gemcitabine hydrochloride)	therapeutic effect on AsPC-1 tumor cells / tumor inhibition ([1]; summary in words of Table 2)	mitochondrial membrane potential (AsPC-1 cell)
Nc1ccn([C@@H]2O[C@H](CO)[C@@H](O)C2(F)F)c(=O)n1 [gemcitabine hydrochloride, reference compound]	66.1 ± 5.49	–	–	–	–
Inonotus Obliquus dextran [IOP1-1]	–	78.2 ± 2.24	66.5 ± 4.12	excellent	decreases as the concentration of drug administered increases
